US20040006047A1, “Heterocyclic amides, a process for their preparation, compositions comprising them and their use” (priority 2001, published 2004)

| SMILES | melting point |
| --- | --- |
| O=C(NC1CCOCC1)c1cnccc1C(F)(F)F [Example A, N-(Tetrahydropyran-4-yl)-4-trifluoromethylnicotinamide] | 149 to 150 °C |
| O=C(NC1CC[S+]([O-])CC1)c1cnccc1C(F)(F)F (stereo not shown) [Example C, N-(Tetrahydrothiopyran-4-yl)-4-trifluoromethylnicotinamide S-oxide] | 243 to 244 °C |
| O=C(NC1CCS(=O)(=O)CC1)c1cnccc1C(F)(F)F [Example D, N-(Tetrahydrothiopyran-4-yl)-4-trifluoromethylnicotinamide S,S-dioxide] | 248 °C (dec.) |
| CC1(C)OCC(NC(=O)c2cnccc2C(F)(F)F)CO1 [Example E, N-(2,2-Dimethyl-1,3-dioxa-cyclohexyl)-4-trifluoromethylnicotinamide] | 155 to 156 °C |
